From ChEMBL document CHEMBL1201862, “PubChem BioAssay data set” (2004)
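A five-concentration, 48-hour dose response in 96-well plates underlies each endpoint, interpolated linearly between surrounding concentrations. At the GI50, growth is halved.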 Activity calls are given as the source filed them. No stated cut-off is given here; in the data, active = GI50 up to about 1.1 µM and inactive = higher.

Tests used:
Assay in all cases: inhibition of tumour cell growth, NCI panel, 48 h
BT-549 = system: BT-549
HOP-18 = system: HOP-18
KM-20L2 = system: KM-20L2
M19-MEL = system: M19-MEL
SNB-78 = system: SNB-78
XF498 = system: XF498
DMS-273 = system: DMS-273
DLD-1 = system: DLD-1

SMILES: CCOC(=O)N1[C@@H]2CCC[C@@H]2C(=O)[C@@H]2CCC[C@@H]21
- GI50 (BT-549): > 100 µM (inactive)

SMILES: Cc1c2cc[n+](COC(=O)c3ccccc3)cc2c(C)c2c1[nH]c1ccccc12
- GI50 (HOP-18): < 0.01 µM (active)
- GI50 (KM-20L2): 0.641 µM (active)
- GI50 (M19-MEL): 0.743 µM (active)
- GI50 (SNB-78): 1.32 µM (inactive)
- GI50 (XF498): 1.62 µM (inactive)

SMILES: ClC1c2ccccc2C2(c3ccccc3)OOC1(c1ccccc1)O2 (configuration not stated)
- GI50 (DMS-273): 1.52 µM (inactive)
- GI50 (KM-20L2): 1.68 µM (inactive)
- GI50 (SNB-78): 1.45 µM (inactive)

SMILES: O=c1ccc2nc3ccc(O)cc3oc-2c1
- GI50 (BT-549): 7.24 µM (inactive)

SMILES: C=C1C(=O)OC2/C=C(\C)CC/C=C(\C)CC(OC(=O)/C(=C/CO)CO)[C@@H]12 (some centres not stated)
- GI50 (BT-549): 12.1 µM (inactive)

SMILES: C/C=C1/CN2CCc3c([nH]c4ccccc34)[C@@H]2C[C@@H]1Cc1nccc2c1[nH]c1cc(O)ccc12
- GI50 (BT-549): 13.9 µM (inactive)

SMILES: OC(c1ccc(-c2ccccc2)cc1)(c1ccc(-c2ccccc2)cc1)c1ccc(-c2ccccc2)cc1
- GI50 (BT-549): > 100 µM (inactive)

SMILES: CCCn1cnc2c(/N=N/O)ncnc21
- GI50 (BT-549): > 100 µM (inactive)

SMILES: CC(=O)CC(=O)/C=C/c1cccs1
- GI50 (DLD-1): 44 µM (inactive)
- GI50 (KM-20L2): 98.6 µM (inactive)
- GI50 (M19-MEL): 83.9 µM (inactive)

SMILES: CCCCCCCCCCCCC1NC(=N)NC2(CCCO2)C1C(=O)OC (configuration not stated)
- GI50 (BT-549): 4.3 µM (inactive)

SMILES: CC1CCC(=O)C(C(=O)CC2CC(=O)N(C)C(=O)C2)C1 (configuration not stated)
- GI50 (BT-549): > 100 µM (inactive)

SMILES: O=C(O)CCSCc1ccc(I)cc1
- GI50 (BT-549): > 100 µM (inactive)

SMILES: COC(=O)/C(=N/NC(N)=O)C(C(=O)OC)C(=O)C(=O)Nc1ccc(Cl)cc1 (configuration not stated)
- GI50 (DLD-1): > 100 µM (inactive)
- GI50 (DMS-273): > 100 µM (inactive)
- GI50 (HOP-18): > 100 µM (inactive)
- GI50 (KM-20L2): > 100 µM (inactive)
- GI50 (M19-MEL): > 100 µM (inactive)
- GI50 (XF498): > 100 µM (inactive)

SMILES: Fc1cc2nc3n(c2cc1F)C(c1c(F)cccc1F)SC3 (configuration not stated)
- GI50 (BT-549): 53.2 µM (inactive)

SMILES: O=C1N/C(=N\N=C\c2ccccc2)C(c2ccccc2)O1 (configuration not stated)
- GI50 (BT-549): 33 µM (inactive)

SMILES: Nc1nc(N)nc(-c2cnc3ccccc3c2)n1
- GI50 (BT-549): > 100 µM (inactive)

SMILES: COc1cccc2c1CCc1c(-c3ccc(F)cc3)cc(-c3ccc4ccccc4n3)nc1-2
- GI50 (BT-549): > 100 µM (inactive)

SMILES: C[C@H]1CC[C@@]2(NC1)O[C@H]1C[C@H]3[C@@H]4CC[C@H]5C[C@@H](O)CC[C@]5(C)[C@H]4CC[C@]3(C)[C@H]1[C@@H]2C
- GI50 (BT-549): > 100 µM (inactive)

SMILES: COc1ccc(C2C3=C(Nc4ncnn42)c2ccccc2OC3c2ccccc2)cc1 (configuration not stated)
- GI50 (BT-549): 5.26 µM (inactive)

SMILES: O=C(CN1CCCCC1)c1ccc2[nH]c(=O)oc2c1
- GI50 (BT-549): > 100 µM (inactive)

SMILES: CC1(C)[C@@H]2C[C@H]1C(Cc1ccc(C[C@H]3c4cc(-c5ccccn5)ncc4[C@H]4C[C@@H]3C4(C)C)cc1)c1cc(-c3ccccn3)ncc12 (some centres not stated)
- GI50 (BT-549): 3.33 µM (inactive)

SMILES: C=C1C(=O)O[C@H]2C/C(C)=C/CC/C(C)=C/CC[C@@](C)(O)[C@@H](I)C[C@@H]12
- GI50 (BT-549): 1.13 µM (inactive)

SMILES: Cc1cccc(/C=C2\CCCCCC2=O)c1
- GI50 (BT-549): > 100 µM (inactive)

SMILES: CCO/C([O-])=C(/C=O)[n+]1c(C)n(C)c2ccccc21
- GI50 (DLD-1): > 100 µM (inactive)
- GI50 (DMS-273): > 100 µM (inactive)
- GI50 (HOP-18): > 100 µM (inactive)
- GI50 (KM-20L2): > 100 µM (inactive)
- GI50 (M19-MEL): > 100 µM (inactive)
- GI50 (SNB-78): > 100 µM (inactive)

SMILES: COC(Cc1cc(C(O)(c2ccc(C(C)(C)C)cc2)c2cc(CC(OC)(c3cc(C(OC)(c4ccc(C(C)(C)C)cc4)c4ccc(C(C)(C)C)cc4)c(C)cc3C)c3cc(C(OC)(c4ccc(C(C)(C)C)cc4)c4ccc(C(C)(C)C)cc4)c(C)cc3C)c(C)cc2C)c(C)cc1C)(c1cc(C(OC)(c2ccc(C(C)(C)C)cc2)c2ccc(C(C)(C)C)cc2)c(C)cc1C)c1cc(C(OC)(c2ccc(C(C)(C)C)cc2)c2ccc(C(C)(C)C)cc2)c(C)cc1C
- GI50 (BT-549): > 75 µM (inactive)

SMILES: Oc1cc(-c2ccc3ccccc3c2)nc2ncccc12
- GI50 (BT-549): 9.93 µM (inactive)

SMILES: N#C[C@H](c1nc2ccccc2s1)c1nc2ccccc2nc1Cl
- GI50 (BT-549): 4.79 µM (inactive)

SMILES: CCC/C=C1\CCC(CN(C)C)C1=O (configuration not stated)
- GI50 (DLD-1): 2.38 µM (inactive)
- GI50 (DMS-273): 11.9 µM (inactive)
- GI50 (HOP-18): 23.4 µM (inactive)
- GI50 (KM-20L2): 10.3 µM (inactive)
- GI50 (M19-MEL): 12.9 µM (inactive)
- GI50 (XF498): 5.57 µM (inactive)

SMILES: CC(=O)C(C(c1ccccc1)N1CCOCC1)N1CCOCC1 (configuration not stated)
- GI50 (BT-549): > 100 µM (inactive)

SMILES: Nc1ncnc2c1ncn2C1CC(OC2CCCCO2)C(CO)O1 (configuration not stated)
- GI50 (DLD-1): > 100 µM (inactive)
- GI50 (DMS-273): > 100 µM (inactive)
- GI50 (HOP-18): > 100 µM (inactive)
- GI50 (KM-20L2): > 100 µM (inactive)
- GI50 (M19-MEL): > 100 µM (inactive)
- GI50 (SNB-78): > 100 µM (inactive)
- GI50 (XF498): > 100 µM (inactive)

SMILES: CC1(C)C(CBr)=[N+]([O-])C(C)(C)N1O
- GI50 (BT-549): 2.64 µM (inactive)

SMILES: O=C(c1ccccc1)C(Nc1ccc2ccccc2c1)c1ccccc1 (configuration not stated)
- GI50 (BT-549): 32.1 µM (inactive)

SMILES: CC(C)C(/C=C/c1ccc(Cl)cc1)=N\NC(=S)NN
- GI50 (BT-549): 23.1 µM (inactive)

SMILES: C1CCC(N=C2N(C3CCCCC3)C(=NC3CCCCC3)N2C2CCCCC2)CC1
- GI50 (DLD-1): > 100 µM (inactive)
- GI50 (DMS-273): > 100 µM (inactive)
- GI50 (HOP-18): > 100 µM (inactive)
- GI50 (KM-20L2): > 100 µM (inactive)
- GI50 (M19-MEL): > 100 µM (inactive)
- GI50 (XF498): > 100 µM (inactive)

SMILES: COC(=O)CC1N/C(=N\C#N)N(CCc2c[nH]c3ccccc23)C1=O (configuration not stated)
- GI50 (DLD-1): > 100 µM (inactive)
- GI50 (DMS-273): > 100 µM (inactive)
- GI50 (KM-20L2): > 100 µM (inactive)
- GI50 (M19-MEL): > 100 µM (inactive)
- GI50 (SNB-78): > 100 µM (inactive)
- GI50 (XF498): > 100 µM (inactive)

SMILES: NC(Cc1ccc(O)cn1)C(=O)O (configuration not stated)
- GI50 (BT-549): > 100 µM (inactive)

SMILES: CSc1nc2c(ncn2C2OCC(O)C(O)C2O)c(=O)[nH]1 (configuration not stated)
- GI50 (DLD-1): > 100 µM (inactive)
- GI50 (DMS-273): > 100 µM (inactive)
- GI50 (HOP-18): > 100 µM (inactive)
- GI50 (KM-20L2): > 100 µM (inactive)
- GI50 (M19-MEL): > 100 µM (inactive)
- GI50 (SNB-78): > 100 µM (inactive)
- GI50 (XF498): > 100 µM (inactive)
